Measured values: US9480252B2, “Herbicidal compositions” (Syngenta Crop Protection LLC, priority 2007, dated 2016)

Key:
Brachiaria plantaginea [1] = assay: Glasshouse trial, control of Brachiaria, pre-emergence test; format: in vivo; details: TXP (where applied) 200 g ai/ha, 20 DAA
Description: (§1) A glasshouse trial was carried out to test the activity of mesotrione or the compound of formula I (each at 3 different rates) in combination with trinexapac-ethyl at 200 gai/ha against Brachiaria plantaginea. Brachiaria seeds were sown in standard potting mix in 50 cm plastic troughs. The adjuvant system was X-77 at 0.1% v/v in deionised water. 500 liters of herbicide/adjuvant system was used per hectare. General weed control was evaluated at 15 days after application (DAA) for the post-emergence test and 20DAA for the pre-emergence test. It is noted that all herbicides were applied at reduced field rates because herbicide effects are magnified in a glasshouse environment. Rates were chosen to give a 50 to 70% level of control with herbicides applied alone as this allows for detection of any synergistic effect when tank mixtures are used.

Brachiaria plantaginea [2] = assay: Glasshouse trial, control of Brachiaria, post-emergence test; format: in vivo; details: TXP (where applied) 200 g ai/ha, 15 DAA
Description: as §1

COCCOCc1nc(C(F)(F)F)ccc1C(=O)C1=C(O)C2CCC(C2)C1=O (stereo not drawn) [Formula I]
% Control at different herbicide rates (Brachiaria plantaginea [1]; herbicide rate 30 g ai/ha): 30%
% Control at different herbicide rates (Brachiaria plantaginea [1]; herbicide rate 60 g ai/ha): 80%
% Control at different herbicide rates (Brachiaria plantaginea [1]; herbicide rate 125 g ai/ha): 90%
% Control at different herbicide rates (Brachiaria plantaginea [2]; herbicide rate 30 g ai/ha): 60%
% Control at different herbicide rates (Brachiaria plantaginea [2]; herbicide rate 60 g ai/ha): 70%
% Control at different herbicide rates (Brachiaria plantaginea [2]; herbicide rate 125 g ai/ha): 80%

CS(=O)(=O)c1ccc(C(=O)C2C(=O)CCCC2=O)c([N+](=O)[O-])c1 [Mesotrione, mesotrione]
% Control at different herbicide rates (Brachiaria plantaginea [1]; herbicide rate 30 g ai/ha): 30%
% Control at different herbicide rates (Brachiaria plantaginea [1]; herbicide rate 60 g ai/ha): 50%
% Control at different herbicide rates (Brachiaria plantaginea [1]; herbicide rate 125 g ai/ha): 80%
% Control at different herbicide rates (Brachiaria plantaginea [2]; herbicide rate 30 g ai/ha): 30%
% Control at different herbicide rates (Brachiaria plantaginea [2]; herbicide rate 60 g ai/ha): 70%
% Control at different herbicide rates (Brachiaria plantaginea [2]; herbicide rate 125 g ai/ha): 70%

CCOC(=O)C1CC(=O)C(=C(O)C2CC2)C(=O)C1 (stereo not drawn) [TXP, trinexapac-ethyl]
% Control at different herbicide rates (Brachiaria plantaginea [1]; herbicide rate 30 g ai/ha): 0%
% Control at different herbicide rates (Brachiaria plantaginea [1]; herbicide rate 60 g ai/ha): 0%
% Control at different herbicide rates (Brachiaria plantaginea [1]; herbicide rate 125 g ai/ha): 0%
% Control at different herbicide rates (Brachiaria plantaginea [2]; herbicide rate 30 g ai/ha): 0%
% Control at different herbicide rates (Brachiaria plantaginea [2]; herbicide rate 60 g ai/ha): 0%
% Control at different herbicide rates (Brachiaria plantaginea [2]; herbicide rate 125 g ai/ha): 0%
